According to patent US20110200545A1, “DEODORANT COMPOSITION AND METHODS FOR USE THEREOF” (priority 2010, published 2011):

What was measured:
[1] = pH of acidic solution of the substance by itself; type: physicochemical; details: used by itself, unbuffered
skin = assay: application to skin, detrimental skin effects; type: in vivo
Text: The low pKa results in an acidic solution having a pH of about 1.9, which damages skin and results in skin peeling in the hours and/or days following application to skin.
The pH of skin is about 5.5. When the pH of the skin surface is less than about 3.8, skin peeling results. Additionally, side effects of skin adjusted to a pH of less than about 3.8 include: skin inflammation, dermatitis, itching, and/or sensitizing of the skin.

## CC(=O)Oc1ccccc1C(=O)O [acetylsalicyclic acid]
[1]
  pH of acidic solution: about 1.9
skin; in a composition having a pH of about 3.8 or less
  detrimental effects on skin: an acid burn of the skin, inflammation, itching, sensitizing, dermatitis, and/or skin peeling
skin; used by itself, hours and/or days following application to skin
  effect on skin: acts as a skin peeler
